Ends that are not written are not given here. * marks the point of attachment. NorAha = N-(hexanoic acid)-cis-5-norbornene-exo-dicarboximide, O=C1[C@@H]2[C@H](C(=O)N1CCCCCC(=O)*)[C@H]1C=C[C@@H]2C1; fluorescein = 5(6)-carboxyfluorescein
Columns and labels:
[1] = tested on: trypsin, chymotrypsin and Pronase; test: RP-HPLC analysis of CPP proteolysis (intact material after protease treatment); assay type: in vitro ADME; settings: 1 μM protease, 20 min
Description: The extent of proteolytic degradation of the Tat peptide, polymer and particle by trypsin (Gibco Life Tech., cat. #15090-046), a-chymotrypsin (Fisher Scientific, cat. #ICN1522722) and Pronase (Roche, cat. #10165921001) was assessed by comparison of chromatograms in RP-HPLC. I n these experiments, the material at the indicated concentration was incubated with each protease (at 1 μM) for 20 min, and then the enzymes were heat denatured at 65° C. for 15 min, and the solution was immediately injected onto an analytical RP-HPLC. […] Note that the standard curves for the polymer and particle will be biased due to the fact that after cleavage, the polymer backbone and fluorophore should remain intact, and will comprise part of the measured peak area.
Tat-containing materials, at the same concentration used in flow cytometery and confocal microscopy studies described above (2.5 M), were challenged for 20 min with various proteases at high enzyme concentration (˜1 M) prior to determining the extent of proteolytic cleavage and residual bioactivity. Such activity was assayed by three separate methods: reverse-phase high-performance liquid chromatography (RP-HPLC), flow cytometry, and confocal microscopy. […] The bioactivity of enzymatically digested materials was then assessed in cellular assays by both flow cytometry and confocal microscopy.

chymotrypsin = chymotrypsin (Bos taurus, UniProt P00766); test: Time course of chymotrypsin treatment assayed by RP-HPLC; settings: after 20 minutes of incubation with chymotrypsin (1 μM)
HeLa cells [2] = test: Cellular uptake in HeLa cells by flow cytometry (Tat, Arg8, guanidinium materials and controls); assay type: cell-based; settings: 30 min incubation, DMEM with 10% FBS
HeLa cells [3] = test: CellTiter-Blue cell viability assay, 72 hrs; settings: for LD50: data fit to the Hill equation
Description: The cytotoxicity of materials was assessed using the CellTiter-Blue® assay (Promega, cat #G8081), which measures the metabolic reduction of resazurin to resorufin via fluorescence. For these studies, HeLa cells were plated at a density of 3,500 cells per well of a 96-well plate 18 hrs prior to treatment. Materials dissolved in DPBS at 10× the desired concentrations were added to the wells along with a 10% DMSO positive control. Cells were incubated for 72 hrs at 37° C. Note that concentration for all toxicity measurements is with respect to peptide concentration to ensure that all peptides and polymers are fairly compared with respect to their therapeutic components. […] The medium was removed and 80 μL of fresh medium lacking phenol red was added. To this was added 20 μL of the CellTiter-Blue® reagent and the cells were then incubated for 2 hrs prior to measuring fluorescence using 560 nm excitation and 590 nm emission. The fluorescence measurements were corrected for background fluorescence from the CellTiter-Blue® reagent by subtracting the fluorescence reading of wells treated with the reagent in the absence of cells. Fluorescence values were then referenced as a percentage of the value obtained for the DPBS vehicle control.

HeLa cells [4] = test: Cellular uptake in HeLa cells by flow cytometry (GSGSG-derived and KLA polymers); assay type: cell-based; settings: 2.5 μM with respect to fluorophore, 30 min
Description: HeLa cells were plated at a density of 90,000 cells per well of a 24-well plate 18 hrs prior to treatment with the material of interest. Materials dissolved in Dulbecco's Phosphate Buffered Saline (DPBS without Ca2+ or Mg2+; Corning Cellgro, cat. #21-031-CM) at 10× the desired concentration (where concentration is with respect to fluorophore concentration to ensure propare comparison of each molecular transporter) were added to the wells and the plates were incubated for 30 min at 37° C. The medium was then removed and the cells were washed 2× with DPBS and then incubated 3× for five minutes each with heparin (0.5 mg/mL in DPBS; Affymetrix, cat. #16920) to remove any membrane-bound, non-internalized material, and finally rinsed again with DPBS. The cells were then trypsinized (0.25% trypsin in DPBS; Gibco Life Tech., cat. #15090-046) for 10 min, cold medium was added, and the cells were transferred to Eppendorfs. The suspended cells were centrifuged to pellets and then resuspended in a minimal amount of cold DPBS. Flow cytometry data (10,000 events on three separate cultures) was then acquired.

HeLa cells [5] = test: Pharmacological and thermal probes of cellular uptake mechanisms by flow cytometry; assay type: cell-based; settings: dynasore 80 μM, MβCD 9.5 mM, 4° C.
Description: HeLa cells were plated at a density of 90,000 cells per well of a 24-well plate 18 h prior to treatment. Materials dissolved in Dulbecco's Phosphate Buffered Saline (DPBS without Ca^2+ or Mg^2+; Corning Cellgro, cat. #21-031-CM) at 10× the desired concentration were added to the wells, and the plates were incubated for 30 min at 37° C. The medium was then removed, and the cells were washed twice with DPBS and then incubated three times for 5 min with heparin (0.5 mg/mL in DPBS; Affymetrix, cat. #16920), and finally rinsed again with DPBS. The cells were then trypsinized (0.25% trypsin; Gibco Life Tech., cat. #15090-046) for 10 min, cold medium was added, and the cells were transferred to Eppendorfs, centrifuged to pellets and then resuspended in a minimal amount of cold DPBS. Fluorescence activated cell sorting data (10000 events on three separate cultures) was acquired on an Accuri C6 flow cytometer set to default “3 blue 1 red” configuration with standard optics and slow fluidics (14 μL/min). […] The cells were then incubated, prepared and analyzed by flow cytometry as described above. […] Data is reported as the normalized mean fluorescence, which are the mean fluorescence yielded by the material/the mean fluorescence from the vehicle control. […]

HeLa cells [6] = test: Live-cell confocal microscopy (GSGSG-derived and KLA polymers); assay type: cell-based; settings: 2.5 μM with respect to fluorophore
[7] = tested on: CC(C)C[C@H](NC(=O)[C@H](Cc1c[nH]cn1)NC(=O)[C@H](C)NC(=O)[C@@H]1CCCN1C(=O)[C@H](CCCNC(=N)N)NC(=O)[C@H](CCC(=O)NCCNc1cccc2c(S(=O)(=O)O)cccc12)NC(=O)CN1C(=O)[C@@H]2[C@H](C1=O)[C@H]1C=C[C@@H]2C1)C(=O)N[C@@H](CCCNC(=N)N)C(=O)N[C@@H](CC(=O)O)C(=O)N[C@@H](CO)C(=O)NCC(=O)N[C@@H](CCCCNC(=O)c1ccc(N=Nc2ccc(N(C)C)cc2)cc1)C(=O)NCC(=O)N[C@@H](CO)C(=O)NCC(=O)N[C@@H](CO)C(=O)NCC(N)=O; test: purified protein, by the assay type; settings: other: Michaelis-Menten plot, cleavage by MT1-MMP; pH 7.4
[8] = 72 hrs, concentration with respect to peptide

## N=C(N)NCCC[C@H](NC(=O)[C@H](CCCNC(=N)N)NC(=O)[C@H](CCCNC(=N)N)NC(=O)[C@H](CCC(N)=O)NC(=O)[C@H](CCCNC(=N)N)NC(=O)[C@H](CCCNC(=N)N)NC(=O)[C@H](CCCCN)NC(=O)[C@H](CCCCN)NC(=O)[C@H](CCCNC(=N)N)NC(=O)CNC(=O)[C@H](Cc1ccc(O)cc1)NC(=O)[C@@H](N)CCCCNC(=O)c1ccc2c(c1)C(=O)OC21c2ccc(O)cc2Oc2cc(O)ccc21)C(N)=O [Tat peptide]
[1]
  proteolysis by RP-HPLC after protease treatment (in words): complete consumption
chymotrypsin
  material remaining, of the starting concentration: less than 10%

## Arg8 polymer: fluorescein end-labeled ROMP homopolymer of NorAha-Arg8 monomer, DP 8, deprotected (NorAha-RRRRRRRR-NH2; also: ROMP homopolymer, DP 8, fluorescein end label on polymer)
HeLa cells [2]
  cellular uptake by flow cytometry (in words): responses similar to those of the guanidinium polymer

## GSGSG56-b-OEG28 [GSGSG, m ~60]
HeLa cells [3]; at concentrations up to 1 mM
  cytotoxicity (in words): No cytotoxicity

## GSGSGKK61-b-OEG30 [GSGSGKK, m ~60]
HeLa cells [3]; at concentrations up to 1 mM
  cytotoxicity (in words): No cytotoxicity

## GSGSGR71-b-OEG26 (also: ROMP block copolymer, Arg block DP 71, OEG block DP 26) [GSGSGR, m ~60]
HeLa cells [4]
  cellular uptake by flow cytometry (in words): better intracellular penetration

## GSGSGRR57-b-OEG13 (not fully specified; also: ROMP polymer backbone, 57 repeats of peptide, OEG block, 13 units) [GSGSGRR, m ~60]
HeLa cells [3]; at concentrations up to 1 mM
  cytotoxicity (in words): No cytotoxicity
HeLa cells [4]
  cellular uptake by flow cytometry (in words): better intracellular penetration

## K(5/6-Flu)RRRRRRRR-NH2 (K(fluorescein)RRRRRRRR-NH2) [Arg8 peptide, fluorescein-labeled canonical cell penetrating peptide Arg8]
HeLa cells [5]
  effect of pharmacological and thermal inhibition on flow cytometry readings: only a small effect

## KLA6 [KLA full length, m ~5]
HeLa cells [3]; [8]
  LD50: 12.5 µM

## KLA11 [KLA full length, m ~10]
HeLa cells [3]; [8]
  LD50: 25 µM

## KLA14 [KLA full length, m ~15]
HeLa cells [3]; [8]
  LD50: 30 µM

## KLA(fragment)11 (KLAKLAK; also: ROMP polymer, 11 repeats) [KLA fragment, m ~10]
HeLa cells [6]
  internalization and localization by live-cell confocal microscopy (in words): a mixture of diffuse and punctate fluorescence
HeLa cells [3]; [8]
  cytotoxicity (in words): negligible toxicity
HeLa cells [4]
  cellular uptake by flow cytometry (in words): ability to enter cells

## KLAKLAKKLAKLAK (KLAKLAKKLAKLAK-NH2; also: fluorescein-lysine, position not given here) [KLA peptide, reference compound]
HeLa cells [3]; [8]
  cytotoxicity (in words): no cytotoxicity was detected
HeLa cells [4]
  cellular uptake by flow cytometry (in words): indistinguishable from that of the vehicle control

## MT1-MMP (Homo sapiens)
[7]
  Km: 11 µM
  kcat/Km: 8670 M⁻¹ s⁻¹

## R52-b-OEG20 [R control, m ~60]
HeLa cells [6]
  internalization and localization by live-cell confocal microscopy (in words): a mixture of diffuse and punctate fluorescence
